PubChem BioAssay AID1918947 (Molecular Pharmacology Branch, DTP, NCI, 2023)
“And” between values parts separate entries of the source, which are not always exact repeats. Equal values may be shown once.

What follows are molecules tested on A498 complex spheroid viability (assay: Anticancer human tumor A498 cell line growth inhibition). Conditions: curve of compound.
Outline: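 Drug combinations with the LSD1 inhibitor iadademstat tested on tumor cells co-cultured as spheroids with endothelial cells and mesenchymal stem cells. Concentrations descended in half-log increments from clinical Cmax or 10 microM.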
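Also: spheroids exposed to agents for seven days before readout.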
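For viability, T/C in this document: 100% = DMSO vehicle-treated spheroids.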

Question: How did the IC50 turn out when `CC(C)CC(NC(=O)C(Cc1ccccc1)NC(=O)c1cnccn1)B(O)O` (configuration not stated) was run?
Answer: The IC50 was 1.22 nM and 0.674 nM.

Question: With `O=C(C=Cc1cccc(S(=O)(=O)Nc2ccccc2)c1)NO` as the molecule, how does the IC50 read?
Answer: The IC50 was 365 nM and 282 nM.

Same assay, conditions: curve of first compound; second compound 0.1 µM

Question: How did the IC50 turn out when `Cn1ncnc1C1c2n[nH]c(=O)c3cc(F)cc(c23)NC1c1ccc(F)cc1` (configuration not stated) + NC1CCC(NC2CC2c2ccccc2)CC1 was run?
Answer: Its IC50 is over 100 nM.

Question: How did the IC50 turn out when `CC(C)CC(NC(=O)C(Cc1ccccc1)NC(=O)c1cnccn1)B(O)O` (configuration not stated) + NC1CC1c1ccc(-c2cccc(O)c2)cc1 was run?
Answer: The IC50 was 0.661 nM.

Question: For `O=C(C=Cn1cnc(-c2cc(C(F)(F)F)cc(C(F)(F)F)c2)n1)NNc1cnccn1` + NC1CCC(NC2CC2c2ccccc2)CC1, which IC50 is on record?
Answer: Its IC50 is 5.21 nM.

Question: Which IC50 does the source give for `COc1cc(Nc2ncc3c(n2)-c2ccc(Cl)cc2C(c2c(F)cccc2OC)=NC3)ccc1C(=O)O` + NC1CCC(NC2CC2c2ccccc2)CC1 here?
Answer: The IC50 was 256 nM.

Same assay, conditions: curve of first compound; second compound 0.316 µM

Question: `Cn1ncnc1C1c2n[nH]c(=O)c3cc(F)cc(c23)NC1c1ccc(F)cc1` (configuration not stated) + NC1CCC(NC2CC2c2ccccc2)CC1 was tested. Which IC50 did it give?
Answer: The IC50 was over 100 nM.

Question: For `CC(C)CC(NC(=O)C(Cc1ccccc1)NC(=O)c1cnccn1)B(O)O` (configuration not stated) + NC1CC1c1ccc(-c2cccc(O)c2)cc1, which IC50 is on record?
Answer: Its IC50 is 0.69 nM.

Question: `O=C(C=Cn1cnc(-c2cc(C(F)(F)F)cc(C(F)(F)F)c2)n1)NNc1cnccn1` + NC1CCC(NC2CC2c2ccccc2)CC1 was tested. Which IC50 did it give?
Answer: Its IC50 is 7.74 nM.

Question: `COc1cc(Nc2ncc3c(n2)-c2ccc(Cl)cc2C(c2c(F)cccc2OC)=NC3)ccc1C(=O)O` + NC1CCC(NC2CC2c2ccccc2)CC1 was tested. Which IC50 did it give?
Answer: The IC50 was 454 nM.

Same assay, conditions: curve of first compound; second compound 1 µM

Question: Which IC50 does the source give for `Cn1ncnc1C1c2n[nH]c(=O)c3cc(F)cc(c23)NC1c1ccc(F)cc1` (configuration not stated) + NC1CCC(NC2CC2c2ccccc2)CC1 here?
Answer: Its IC50 is over 100 nM.

Question: `CC(C)CC(NC(=O)C(Cc1ccccc1)NC(=O)c1cnccn1)B(O)O` (configuration not stated) + NC1CC1c1ccc(-c2cccc(O)c2)cc1 was tested. Which IC50 did it give?
Answer: Its IC50 is 0.66 nM.

Question: How did the IC50 turn out when `O=C(C=Cn1cnc(-c2cc(C(F)(F)F)cc(C(F)(F)F)c2)n1)NNc1cnccn1` + NC1CCC(NC2CC2c2ccccc2)CC1 was run?
Answer: Its IC50 is 6.26 nM.

Question: For `COc1cc(Nc2ncc3c(n2)-c2ccc(Cl)cc2C(c2c(F)cccc2OC)=NC3)ccc1C(=O)O` + NC1CCC(NC2CC2c2ccccc2)CC1, which IC50 is on record?
Answer: The IC50 was 415 nM.

Same assay, conditions: curve of first compound; second compound 3.16 µM

Question: Which IC50 does the source give for `Cn1ncnc1C1c2n[nH]c(=O)c3cc(F)cc(c23)NC1c1ccc(F)cc1` (configuration not stated) + NC1CCC(NC2CC2c2ccccc2)CC1 here?
Answer: Its IC50 is over 100 nM.

Question: For `CC(C)CC(NC(=O)C(Cc1ccccc1)NC(=O)c1cnccn1)B(O)O` (configuration not stated) + NC1CC1c1ccc(-c2cccc(O)c2)cc1, which IC50 is on record?
Answer: The IC50 was 0.598 nM.

Question: With `O=C(C=Cn1cnc(-c2cc(C(F)(F)F)cc(C(F)(F)F)c2)n1)NNc1cnccn1` + NC1CCC(NC2CC2c2ccccc2)CC1 as the molecule, how does the IC50 read?
Answer: The IC50 was 6.7 nM.

Question: How did the IC50 turn out when `COc1cc(Nc2ncc3c(n2)-c2ccc(Cl)cc2C(c2c(F)cccc2OC)=NC3)ccc1C(=O)O` + NC1CCC(NC2CC2c2ccccc2)CC1 was run?
Answer: Its IC50 is 291 nM.

Same assay, conditions: curve of first compound; second compound 10 µM

Question: Which IC50 does the source give for `Cn1ncnc1C1c2n[nH]c(=O)c3cc(F)cc(c23)NC1c1ccc(F)cc1` (configuration not stated) + NC1CCC(NC2CC2c2ccccc2)CC1 here?
Answer: Its IC50 is over 100 nM.

Question: How did the IC50 turn out when `CC(C)CC(NC(=O)C(Cc1ccccc1)NC(=O)c1cnccn1)B(O)O` (configuration not stated) + NC1CC1c1ccc(-c2cccc(O)c2)cc1 was run?
Answer: The IC50 was 0.604 nM.

Question: Which IC50 does the source give for `O=C(C=Cn1cnc(-c2cc(C(F)(F)F)cc(C(F)(F)F)c2)n1)NNc1cnccn1` + NC1CCC(NC2CC2c2ccccc2)CC1 here?
Answer: The IC50 was 4.09 nM.

Question: For `COc1cc(Nc2ncc3c(n2)-c2ccc(Cl)cc2C(c2c(F)cccc2OC)=NC3)ccc1C(=O)O` + NC1CCC(NC2CC2c2ccccc2)CC1, which IC50 is on record?
Answer: The IC50 was 523 nM.

Same assay, conditions: second compound 0.1 µM; first compound 0.000316 µM; stronger effect = lower value

Question: `Cn1ncnc1C1c2n[nH]c(=O)c3cc(F)cc(c23)NC1c1ccc(F)cc1` (configuration not stated) + NC1CCC(NC2CC2c2ccccc2)CC1 was tested. Which viability, T/C did it give?
Answer: Its viability, T/C is 84%.

Question: Which viability, T/C does the source give for `CC(C)CC(NC(=O)C(Cc1ccccc1)NC(=O)c1cnccn1)B(O)O` (configuration not stated) + NC1CC1c1ccc(-c2cccc(O)c2)cc1 here?
Answer: Its viability, T/C is 105%.

Same assay, conditions: second compound 0.1 µM; first compound 0.001 µM; stronger effect = lower value

Question: How did the viability, T/C turn out when `Cn1ncnc1C1c2n[nH]c(=O)c3cc(F)cc(c23)NC1c1ccc(F)cc1` (configuration not stated) + NC1CCC(NC2CC2c2ccccc2)CC1 was run?
Answer: The viability, T/C was 88.1%.

Question: Which viability, T/C does the source give for `CC(C)CC(NC(=O)C(Cc1ccccc1)NC(=O)c1cnccn1)B(O)O` (configuration not stated) + NC1CC1c1ccc(-c2cccc(O)c2)cc1 here?
Answer: The viability, T/C was 19.2%.

Same assay, conditions: second compound 0.1 µM; first compound 0.00316 µM; stronger effect = lower value

Question: How did the viability, T/C turn out when `Cn1ncnc1C1c2n[nH]c(=O)c3cc(F)cc(c23)NC1c1ccc(F)cc1` (configuration not stated) + NC1CCC(NC2CC2c2ccccc2)CC1 was run?
Answer: Its viability, T/C is 82.7%.

Question: How did the viability, T/C turn out when `CC(C)CC(NC(=O)C(Cc1ccccc1)NC(=O)c1cnccn1)B(O)O` (configuration not stated) + NC1CC1c1ccc(-c2cccc(O)c2)cc1 was run?
Answer: The viability, T/C was 2.39%.

Question: With `O=C(C=Cn1cnc(-c2cc(C(F)(F)F)cc(C(F)(F)F)c2)n1)NNc1cnccn1` + NC1CCC(NC2CC2c2ccccc2)CC1 as the molecule, how does the viability, T/C read?
Answer: The viability, T/C was 56.5%.

Question: Which viability, T/C does the source give for `COc1cc(Nc2ncc3c(n2)-c2ccc(Cl)cc2C(c2c(F)cccc2OC)=NC3)ccc1C(=O)O` + NC1CCC(NC2CC2c2ccccc2)CC1 here?
Answer: Its viability, T/C is 86.1%.

Same assay, conditions: second compound 0.1 µM; first compound 0.01 µM; stronger effect = lower value

Question: `Cn1ncnc1C1c2n[nH]c(=O)c3cc(F)cc(c23)NC1c1ccc(F)cc1` (configuration not stated) + NC1CCC(NC2CC2c2ccccc2)CC1 was tested. Which viability, T/C did it give?
Answer: Its viability, T/C is 87.4%.

Question: For `CC(C)CC(NC(=O)C(Cc1ccccc1)NC(=O)c1cnccn1)B(O)O` (configuration not stated) + NC1CC1c1ccc(-c2cccc(O)c2)cc1, which viability, T/C is on record?
Answer: The viability, T/C was 0.87%.

Question: With `O=C(C=Cn1cnc(-c2cc(C(F)(F)F)cc(C(F)(F)F)c2)n1)NNc1cnccn1` + NC1CCC(NC2CC2c2ccccc2)CC1 as the molecule, how does the viability, T/C read?
Answer: The viability, T/C was 40.9%.

Question: How did the viability, T/C turn out when `COc1cc(Nc2ncc3c(n2)-c2ccc(Cl)cc2C(c2c(F)cccc2OC)=NC3)ccc1C(=O)O` + NC1CCC(NC2CC2c2ccccc2)CC1 was run?
Answer: Its viability, T/C is 72.4%.

Same assay, conditions: second compound 0.1 µM; first compound 0.0316 µM; stronger effect = lower value

Question: How did the viability, T/C turn out when `Cn1ncnc1C1c2n[nH]c(=O)c3cc(F)cc(c23)NC1c1ccc(F)cc1` (configuration not stated) + NC1CCC(NC2CC2c2ccccc2)CC1 was run?
Answer: The viability, T/C was 85.1%.

Question: For `CC(C)CC(NC(=O)C(Cc1ccccc1)NC(=O)c1cnccn1)B(O)O` (configuration not stated) + NC1CC1c1ccc(-c2cccc(O)c2)cc1, which viability, T/C is on record?
Answer: The viability, T/C was 1%.

Question: For `O=C(C=Cn1cnc(-c2cc(C(F)(F)F)cc(C(F)(F)F)c2)n1)NNc1cnccn1` + NC1CCC(NC2CC2c2ccccc2)CC1, which viability, T/C is on record?
Answer: Its viability, T/C is 33.6%.

Question: For `COc1cc(Nc2ncc3c(n2)-c2ccc(Cl)cc2C(c2c(F)cccc2OC)=NC3)ccc1C(=O)O` + NC1CCC(NC2CC2c2ccccc2)CC1, which viability, T/C is on record?
Answer: Its viability, T/C is 66.2%.

Same assay, conditions: second compound 0.1 µM; first compound 0.1 µM; stronger effect = lower value

Question: For `Cn1ncnc1C1c2n[nH]c(=O)c3cc(F)cc(c23)NC1c1ccc(F)cc1` (configuration not stated) + NC1CCC(NC2CC2c2ccccc2)CC1, which viability, T/C is on record?
Answer: Its viability, T/C is 85.3%.

Question: Which viability, T/C does the source give for `CC(C)CC(NC(=O)C(Cc1ccccc1)NC(=O)c1cnccn1)B(O)O` (configuration not stated) + NC1CC1c1ccc(-c2cccc(O)c2)cc1 here?
Answer: The viability, T/C was 0.39%.

Question: For `O=C(C=Cn1cnc(-c2cc(C(F)(F)F)cc(C(F)(F)F)c2)n1)NNc1cnccn1` + NC1CCC(NC2CC2c2ccccc2)CC1, which viability, T/C is on record?
Answer: Its viability, T/C is 26.6%.

Question: How did the viability, T/C turn out when `COc1cc(Nc2ncc3c(n2)-c2ccc(Cl)cc2C(c2c(F)cccc2OC)=NC3)ccc1C(=O)O` + NC1CCC(NC2CC2c2ccccc2)CC1 was run?
Answer: The viability, T/C was 56%.

Same assay, conditions: second compound 0.1 µM; first compound 0.316 µM; stronger effect = lower value

Question: Which viability, T/C does the source give for `O=C(C=Cn1cnc(-c2cc(C(F)(F)F)cc(C(F)(F)F)c2)n1)NNc1cnccn1` + NC1CCC(NC2CC2c2ccccc2)CC1 here?
Answer: Its viability, T/C is 24.9%.

Question: `COc1cc(Nc2ncc3c(n2)-c2ccc(Cl)cc2C(c2c(F)cccc2OC)=NC3)ccc1C(=O)O` + NC1CCC(NC2CC2c2ccccc2)CC1 was tested. Which viability, T/C did it give?
Answer: Its viability, T/C is 47.7%.

Same assay, conditions: second compound 0.1 µM; first compound 1 µM; stronger effect = lower value

Question: Which viability, T/C does the source give for `O=C(C=Cn1cnc(-c2cc(C(F)(F)F)cc(C(F)(F)F)c2)n1)NNc1cnccn1` + NC1CCC(NC2CC2c2ccccc2)CC1 here?
Answer: The viability, T/C was 20.9%.

Question: `COc1cc(Nc2ncc3c(n2)-c2ccc(Cl)cc2C(c2c(F)cccc2OC)=NC3)ccc1C(=O)O` + NC1CCC(NC2CC2c2ccccc2)CC1 was tested. Which viability, T/C did it give?
Answer: The viability, T/C was 43.2%.

Same assay, conditions: second compound 0.316 µM; first compound 0.000316 µM; stronger effect = lower value

Question: `Cn1ncnc1C1c2n[nH]c(=O)c3cc(F)cc(c23)NC1c1ccc(F)cc1` (configuration not stated) + NC1CCC(NC2CC2c2ccccc2)CC1 was tested. Which viability, T/C did it give?
Answer: The viability, T/C was 95.5%.
